The values below come from the Bradley open melting point set (2014).

“And” between values parts separate entries of the source, which are not always exact repeats. Equal entries are not always repeated.

`CCC(=O)OC` [methyl propionate]: the melting point (as a rule, the temperature, or range, at which the solid turns liquid) is -88 °C.

In turn, `CC1(C)[C@@H]2CC[C@@]1(C)C(=O)C2=O` [(1R)-camphorquinone] displayed a melting point of 200 °C.

Regarding `Clc1ncnc2sc3c(c12)CCC3`, the melting point is 105 °C.

In the case of `O=C1C=C(NCCc2ccccn2)C(=O)c2ccccc21` [2-[(2-pyridin-2-ylethyl)amino]naphthalene-1,4-dione], the melting point worked out at 129 °C.

With `NS(N)(=O)=O` [sulfamide], the melting point was determined as 92 °C.

`CC(=O)c1cccc([N+](=O)[O-])c1` [1-(3-Nitrophenyl)ethanone] gave a melting point of 81 °C.

Take `CC(C)SC(C)C` [Diisopropyl sulfide]: the melting point is -106 °C.

`COC(=O)CCC(C)C1CCC2C3C=CC4CC(OC(C)=O)CCC4(C)C3CC(OC(C)=O)C12C` (stereo not given) [methyl 3,12-bis(acetyloxy)chol-6-en-24-oate] gave a melting point of 84 °C.

For `O=C(OCc1ccccc1)c1ccccc1` [Benzyl Benzoate], the melting point stood at 21 °C.

Molecule `CCCCOC(=O)c1ccc(O)cc1` [Butyl 4-hydroxybenzoate] gave a melting point of 69 °C.

In turn, `CCCCCCCN` [1-aminoheptane] gave a melting point of -18 °C.

The molecule `BrCCCCCCBr` [1,6-dibromohexane] had a melting point of -2 °C.

The molecule `C=C(C)C=O` [methacrolein] registered a melting point of -81 °C.

In the case of `CN1C(=O)CCC(N2C(=O)c3ccccc3C2=O)C1=O` (stereo not given) [N-Methylthalidomide], the melting point stood at 159 °C.

The molecule `C[Si](C)(C)N=C=S` [trimethylsilyl isothiocyanate] showed a melting point of -33 °C.

In turn, `Cn1ccnc1S` [2-mercapto-1-methylimidazole] registered a melting point of 146 °C.

`Clc1nc2ccccc2[nH]1` [2-chlorobenzimidazole]: the melting point is 183 °C.

For the molecule `Nc1ccc([N+](=O)[O-])cc1` [p-nitroaniline], the melting point is 150 °C.

For `COc1ccc(-c2csc(C(C#N)=Cc3ccco3)n2)cc1`, the melting point came out at 116 °C.

Molecule `CN(C)c1ccc(C=O)cc1` [4-dimethylaminobenzaldehyde] registered a melting point of 74 °C.

For the molecule `CCCCl` [1-Chloropropane], the melting point is -122 °C.

For `O=C(O)c1csnn1` [1,2,3-thiadiazole-4-carboxylic acid], the melting point was determined as 228 °C.

Consider `COc1ccc(C=NO)c(OC)c1` [2,4-dimethoxybenzaldoxime], for which the melting point was found to be 107 °C.

The molecule `COC(N)=O` [methyl carbamate] gave a melting point of 55 °C.

As for `c1cc2ccc3ccc4ccc5ccc6ccc1c1c2c3c4c5c61` [coronene], the melting point was 438 °C and 440 °C.

For the molecule `O=C(c1ccncc1)c1ccc(Cl)cc1` [4-(4-chlorobenzoyl)pyridine], the melting point came out at 108 °C.

With `CN(C)c1ccc(Br)cc1` [4-bromo-n,n-dimethylaniline], the melting point turned out to be 55 °C.

As to `Nc1c(Br)cccc1Br` [2,6-dibromoaniline], the melting point came to 81 °C.

Regarding `NS(=O)(=O)c1cc2c(cc1C(F)(F)F)NCNS2(=O)=O` [hydroflumethiazide], the melting point was 272 °C.

Regarding `CCCCNCC(O)c1ccc(O)cc1` (stereo not given) [bamethan], the melting point was determined as 124 °C.

For the molecule `C=Cc1ccc(C)cc1` [1-Methyl-4-vinylbenzene], the melting point is -72.5 °C.

As to `CCOC(=O)[C@H](C)O` [ethyl l-lactate], the melting point is -25 °C.

As for `O=C(Cl)N(c1ccccc1)c1ccccc1` [diphenylcarbamyl chloride], the melting point was 84 °C.

Turning to `C=C1CC2C3C=C(C)C4=CC(=O)CCC4(C)C3CCC2(C)C1(OC(C)=O)C(C)=O` (stereo not given) [melengestrolacetate], the melting point is 224 °C.

The molecule `COC(=O)CCCCC(=O)OC` [Dimethyl adipate] registered a melting point of 8 °C.

`CO/C(C)=C(\C#N)c1ccccc1[N+](=O)[O-]` [(2Z)-3-methoxy-2-(2-nitrophenyl)but-2-enenitrile] had a melting point of 68 °C.

`CC(=O)C(C)C` [3-methyl-2-butanone] registered a melting point of -92 °C.

With `COc1ccc(C(=O)O)cc1` [P-Anisic Acid], the melting point amounted to 185 °C.

Regarding `COc1ccc(NS(=O)(=O)c2ccc(N)cc2)nn1` [Sulfamethoxypyridazine], the melting point came to 182 °C.

In turn, `CCCCCCCCCCCCCc1ccccc1` [N-tridecylbenzene] returned a melting point of 10 °C.

`C#CCCCCCCCCCCCCCCCCC` [1-nonadecyne] yielded a melting point of 33 °C.

For the molecule `Oc1ccc(Cl)cc1Cc1cc(Cl)ccc1O` [2,2'-Methylenebis(4-chlorophenol)], the melting point turned out to be 170 °C.

In turn, `O=P(Oc1ccccc1)(Oc1ccccc1)Oc1ccccc1` [Triphenyl phosphate] displayed a melting point of 50.5 °C.

On to `O=S(=O)(c1ccccc1)c1ccsc1` [3-(phenylsulfonyl)thiophene], for which the melting point worked out at 116 °C.

In the case of `C=CC(C)CC` (stereo not given) [3-methyl-1-pentene], the melting point was -153 °C.

Regarding `O=C(CO)[C@@]3(O)CC[C@H]2[C@@H]4CC\C1=C\C(=O)CC[C@]1(C)[C@H]4C(=O)C[C@@]23C` [cortisone], the melting point is 222 °C and 226 °C (2×).

Consider `NC(=O)c1cnccn1` [Pyrazinamide], for which the melting point was found to be 192 °C.

Molecule `N=C(N)N` [Guanidine] had a melting point of 50 °C.

`CCCCP(CCCC)CCCC` [Tributylphosphine] gave a melting point of -60 °C.

With `O=[N+]([O-])c1ccc(O)c2ccccc12` [4-nitro-1-naphthol], the melting point was found to be 166 °C.

As to `N#CC(CCc1ccc(Cl)cc1)(Cn1cncn1)c1ccccc1` (stereo not given) [fenbuconazole], the melting point was 125 °C.

The molecule `Clc1cccc(Cl)c1` [1,3-dichlorobenzene] registered a melting point of -25 °C.

In turn, `CN(C)C=O` [N,N-Dimethylformamide] registered a melting point of -61 °C.

Regarding `CCCCOc1ccc(-c2nnc3sc(/C=C/c4ccccc4)nn23)cc1`, the melting point came to 80 °C.

Turning to `O=C(O)Cc1ccc(Cl)cc1` [4-chlorophenylacetic acid], the melting point stood at 106 °C.

Molecule `O=C(O)c1ccc(Cl)c([N+](=O)[O-])c1` [4-chloro-3-nitrobenzoic acid] came in with a melting point of 183 °C.

With `Cc1c[nH]c(=O)[nH]c1=O` [thymine], the melting point amounted to 317 °C.

Turning to `O=C(O)COCCNC(=O)C12CC3CC(CC(C3)C1)C2`, the melting point amounted to 122 °C.

Take `Oc1cc(Cl)ccc1Cl` [2,5-dichlorophenol]: the melting point amounted to 57 °C.

With `Cn1c(=O)c2c(ncn2C)n(C)c1=O` [caffeine], the melting point was 238 °C (2×) and 235 °C (2×).

In the case of `O=S(=O)(O)CCCNC(CO)(CO)CO`, the melting point was 230 °C.

Take `Clc1ccc(Cl)cc1` [1,4-Dichlorobenzene]: the melting point was determined as 55 °C.

On to `Nc1ccc(I)cc1` [p-iodoaniline], for which the melting point stood at 63 °C.

`Oc1ccccc1O` [1,2-Dihydroxybenzene]: the melting point is 105 °C.

In turn, `OC1CC2=C(CCCC2)CC1O` (stereo not given) [1,2,3,4,5,6,7,8-octahydronaphthalene-2,3-diol] registered a melting point of 121 °C.

Turning to `OB(O)c1ccccc1-c1ccccc1` [biphenyl-2-boronic acid], the melting point is 179 °C.

For the molecule `COc1cc(F)ccc1C(=O)O` [4-fluoro-2-methoxybenzoic acid], the melting point came out at 135 °C.

Regarding `O=C(O)Cc1c(Cl)cccc1Cl` [2,6-dichlorophenylacetic acid], the melting point was determined as 160 °C.

Molecule `OB(O)c1cccc2ccccc12` [1-naphthaleneboronic acid] displayed a melting point of 207 °C.

For `O=C(O)c1ccccc1O` [salicylic_acid], the melting point is 160 °C.

`COC1=CC(=O)CC(C)C12Oc1c(Cl)c(OC)cc(OC)c1C2=O` (stereo not given) [griseofulvin] registered a melting point of 219 °C.

For `CN1CCC(N(Cc2ccccc2)c2ccccc2)CC1` [bamipine], the melting point was 114 °C.

Molecule `O=C1OC(c2ccccc2)=N/C1=C/c1ccc(-c2cccc([N+](=O)[O-])c2)o1` showed a melting point of 145 °C.

With `CCCCCCC(=O)O` [heptanoic_acid], the melting point is -6 °C.

In the case of `O=C1NC(=O)c2cc([N+](=O)[O-])ccc21` [4-nitrophthalimide], the melting point was 202 °C.

For `CC12CCC3C(C1CCC2=O)C1(CC2CC(=O)CCC23C)OCCO1` (stereo not given), the melting point worked out at 207 °C.

As to `CCI` [Iodoethane], the melting point was -108 °C.

`CC1(C)[C@@H]2CC[C@@]1(C)C(=O)C2` [(1R)-camphor] registered a melting point of 178 °C.

Regarding `CCc1ncc[nH]1` [2-ethylimidazole], the melting point came to 82 °C.

With `N#Cc1ccc2[nH]ccc2c1` [indole-5-carbonitrile], the melting point was determined as 106 °C.

Molecule `CCn1cc(C(=O)O)c(=O)c2cc(F)c(N3CCNC(C)C3)c(F)c21` (stereo not given) [lomefloxacin] had a melting point of 240 °C.

`CC(C)(C)c1cccc(C(C)(C)C)c1O` [2,6-di-tert-butylphenol] had a melting point of 37 °C.

Turning to `NC(=O)CN1Cc2ccccc2OC1=O` [caroxazone], the melting point turned out to be 203 °C.

`CCOc1ccc(NC(C)=O)cc1` [phenacetin] gave a melting point of 134 °C.

Molecule `COc1ccc(B(O)O)c(OC)c1OC` [2,3,4-trimethoxybenzeneboronic acid] had a melting point of 77 °C.

Consider `CN(C)C(=O)Nc1ccccc1` [fenuron], for which the melting point stood at 134 °C.

Regarding `CCCc1cc(O)nc(S)n1` [6-Propyl-2-sulfanylpyrimidin-4-ol], the melting point is 220 °C.

Turning to `Oc1ccccc1-c1ccccc1O` [2,2'-dihydroxybiphenyl], the melting point was determined as 109 °C.

In turn, `C=CCCC` [1-pentene] yielded a melting point of -162 °C.

Take `Cn1c(=O)c2c(ncn2C)n(C)c1=O` [Caffeine]: the melting point worked out at 238 °C.

Consider `Oc1ccc2ccc(O)cc2c1` [2,7-dihydroxynaphthalene], for which the melting point was 186 °C.

`NC(=O)C(Cl)(Cl)Cl` [2,2,2-Trichloroacetamide] came in with a melting point of 142 °C.

`C=CCOc1ccc(CC(=O)O)cc1Cl` [alclofenac] gave a melting point of 92.5 °C.

Regarding `CCCCCCCCCC(C)O` (stereo not given) [2-undecanol], the melting point stood at 2 °C.

In turn, `N#Cc1ccc(C#N)cc1` [terephthalonitrile] returned a melting point of 226 °C.
